According to article PMC7999199, “Novel Cationic Meso-Arylporphyrins and Their Antiviral Activity against HSV-1” (Pharmaceuticals, 2021):

Assays:
Vero cells = test: Vero cell viability, MTT test, 72 h; assay type: cell-based, African green monkey; settings: MTT; for Viability % ±s.d.: +F127 (Pluronic F-127), Vero, 3 days
Method: Before testing antiviral activity, the effect of porphyrins dissolved in PBS and Pluronic F-127 on the viability of Vero cells was evaluated. Cells were incubated for 72 h using different concentrations of porphyrins (0.39–100 μM). Viability was assessed using the MTT test (Figure S13, Table S1, Supplementary Information). The viability of Vero cells depends on the porphyrins’ structure and formulation.
Cell viability was assessed by MTT reduction assay. Briefly, confluent monolayer Vero cells in 96-well plates (15000 cells/well) were incubated for 72 h with different concentrations of the compounds ranging from 0.39 µM to 100 µM in DMEM-1% FCS at 36.8 °C in 5% CO2 atmosphere. Next, cells were incubated for 1 h with 1.0 mg/mL of 3-(4,5-dimethylthiazol-2-y1)-2,5-diphenyltetrazolium bromide (MTT, PanEco, Moscow, Russia) at 36.8 °C, and then the solution was removed, and precipitated formazan was diluted in DMSO (PanEco, Moscow, Russia). The solution was read on a spectrophotometer at 540 nm. For each concentration, the average cell viability was calculated from the data of three experiments with three replicates each and was expressed as a percentage compared to the untreated cells (100%).
Table s1. Vero cell viability after exposure to 3a, 3b, TMEPyP compounds dissolved in PBS and Pluronic F-127. Different concen-
trations of compounds were applied to the cell monolayer and after incubation for 3 days, the number of living cells was calculated
in the MTT test. Each point represents the mean ± standard deviation of three experiments with […] each. n.d. –not done.
Compound Concentration, µM/L Viability % ±s.d.

[1] = Micelle size of Pluronic F-127 formulations by dynamic light scattering; assay type: physicochemical; settings: Pluronic F-127 micelles, concentration 3·10^−6 M
Method: The size of obtained micelles for the compounds 3a,b was determined by the dynamic light scattering (DLS) method. The micelle size for compounds 3a,b was 17.53 nm and 14.69 nm, respectively, at concentrations of 3·10^−6 M (Figure 4a,b). It has previously been reported that a similar micelle size increased the efficiency and circulation of the encapsulated drug in the blood due to the small scale, which avoided the capture of nanoparticles by the reticular endothelial system.
NMR (^1H and ^13C) spectra of the test solutions in CDCl3 or (CD3OD) were recorded on a Bruker MSL-300 pulse Fourier transform spectrometer (Bruker, Billerica, MA, USA) at frequencies of 300.3 and 75.49 MHz, respectively, with internal deuterium stabilization. Tetramethylsilane was used as an external standard. IR spectra (4000–500 cm^–1) were recorded on Infralyum FT 02 Fourier spectrometer (Lumex Instruments Research and Production Company, Moscow, Russia) with a resolution of 1 cm^−1. Samples were prepared as KBr tablets. Dynamic light scattering was measured using Malvern Zetasizer Nano ZS (Malvern, United Kingdom). […] Mass spectra were recorded using an 1100 LCMSD liquid chromatograph (Agilent Technologies, Santa Clara, CA, USA) equipped with a mass spectrometric chemical ionization detector at atmospheric pressure (HIAD, APCI, ESI) and with a UV spectrophotometric detector (DAD). […]

In the case of `O=C(CCCCC[n+]1ccccc1)Oc1ccc(-c2c3nc(c(-c4ccc(OC(=O)CCCCC[n+]5ccccc5)cc4)c4ccc([nH]4)c(-c4ccc(OC(=O)CCCCC[n+]5ccccc5)cc4)c4nc(c(-c5ccc(OC(=O)CCCCC[n+]6ccccc6)cc5)c5ccc2[nH]5)C=C4)C=C3)cc1` [3b, 5,10,15,20-tetrakis(4-(6-pyridyl-n-hexanoyl)oxyphenyl)porphyrin tetrabromide], the “Viability % ±s.d.” value (Vero cells; 0.39 µM/L) is reported as 97.6±6.9%, the “Viability % ±s.d.” value (Vero cells; 0.78 µM/L) is reported as 81.3±10.8% and the “Viability % ±s.d.” value (Vero cells; 1.56 µM/L) is reported as 82.7±19.5%. For the same compound, the “Viability % ±s.d.” value (Vero cells; 3.13 µM/L) was 79.6±9.6%, the “Viability % ±s.d.” value (Vero cells; 6.25 µM/L) was 63.4±8.1% and the “Viability % ±s.d.” value (Vero cells; 12.50 µM/L) was 67.7±11.5%. The “Viability % ±s.d.” value (Vero cells; 25 µM/L) was 58.4±4.4%, the “Viability % ±s.d.” value (Vero cells; 50 µM/L) was 41.3±2.7% and the “Viability % ±s.d.” value (Vero cells; 100 µM/L) was 25.0±1.9%. The CC50 (Vero cells; Pluronic F-127 (F127) micellar formulation, Vero cells, 72 h) was 27 µM and the “micelle size (DLS)” value [1] was 14.69 nm.
